ChEMBL document CHEMBL1154493, “Oxidative inactivation of protein tyrosine phosphatase 1B by organic hydroperoxides” (Bioorg Med Chem Lett, 2008)
The source made the active and inactive calls. The rule behind the calls is not given here.

Tests used:
[1] = target: T1, Tyrosine-protein phosphatase non-receptor type 1 (Homo sapiens) (UniProt P18031); assay: Inactivation of PTP1B at 15 uM after 15 sec
T1 sequence (whole entry): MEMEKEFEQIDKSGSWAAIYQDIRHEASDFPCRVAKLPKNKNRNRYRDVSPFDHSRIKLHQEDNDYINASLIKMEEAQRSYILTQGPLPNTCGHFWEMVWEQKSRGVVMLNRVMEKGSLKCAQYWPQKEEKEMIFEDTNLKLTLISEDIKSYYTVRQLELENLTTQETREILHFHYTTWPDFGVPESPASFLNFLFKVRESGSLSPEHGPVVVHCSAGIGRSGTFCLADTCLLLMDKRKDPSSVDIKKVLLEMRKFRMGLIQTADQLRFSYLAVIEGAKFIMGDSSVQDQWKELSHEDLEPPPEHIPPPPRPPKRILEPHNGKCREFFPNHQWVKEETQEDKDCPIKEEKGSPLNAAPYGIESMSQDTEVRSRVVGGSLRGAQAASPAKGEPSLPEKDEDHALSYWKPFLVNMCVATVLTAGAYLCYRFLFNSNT

[2] = target: T1, Tyrosine-protein phosphatase non-receptor type 1 (Homo sapiens); assay: Inactivation of PTP1B at 15 uM after 15 sec in presence of phosphate ion
[3] = target: T1, Tyrosine-protein phosphatase non-receptor type 1 (Homo sapiens); assay: Inactivation of PTP1B assessed as return of enzyme activity at 800 nM for 10 mins in presence of dithiothreitol
[4] = target: T1, Tyrosine-protein phosphatase non-receptor type 1 (Homo sapiens); assay: Inactivation of PTP1B at 15 uM after 15 sec in presence of glutathione
[5] = target: T2, Tyrosine-protein phosphatase non-receptor type 1 (Homo sapiens, UniProt P18031); assay: Inhibition of PTP1B
T2 sequence (P18031 whole entry): T1 sequence (whole entry)

[6] = target: T1, Tyrosine-protein phosphatase non-receptor type 1 (Homo sapiens); assay: Inactivation of PTP1B assessed as return of enzyme activity at 5 uM after 10 mins in presence of dithiothreitol
[7] = target: T1, Tyrosine-protein phosphatase non-receptor type 1 (Homo sapiens); assay: Inactivation of PTP1B at 150 nM

`CC(=O)OO` [ETHANEPEROXOIC ACID] gave an Activity [1] of 88%, an Activity [2] of 49% and an Activity [3] of 73%. For the same molecule, the Activity [4] was 29%, the Ki [5] was 17 mM and the Activity [6] was 10%.
With `O=C(OO)c1cccc(Cl)c1` the Activity [7] was “Active”.
`O=C(O)c1ccccc1C(=O)OO` was tested, and the Activity [7] was “Active”.
